From ChEMBL document CHEMBL1139127, “Structural modifications of (1S,3S)-3-amino-4-difluoromethylenecyclopentanecarboxylic acid, a potent irreversible inhibitor of GABA aminotransferase” (Bioorg Med Chem Lett, 2007)
Calls of active or inactive are those of the source. The rule behind the calls is not given here.

Tests used:
[1] = target: 4-aminobutyrate aminotransferase, mitochondrial (Homo sapiens) (UniProt P80404); test: Inhibition of GABA-AT at 10 mM assessed as residual activity
[2] = target: 4-aminobutyrate aminotransferase, mitochondrial (Homo sapiens) (UniProt P80404); test: Inhibition of GABA-AT at 1.7 mM

Sequence of 4-aminobutyrate aminotransferase, mitochondrial (Homo sapiens) (P80404 whole entry): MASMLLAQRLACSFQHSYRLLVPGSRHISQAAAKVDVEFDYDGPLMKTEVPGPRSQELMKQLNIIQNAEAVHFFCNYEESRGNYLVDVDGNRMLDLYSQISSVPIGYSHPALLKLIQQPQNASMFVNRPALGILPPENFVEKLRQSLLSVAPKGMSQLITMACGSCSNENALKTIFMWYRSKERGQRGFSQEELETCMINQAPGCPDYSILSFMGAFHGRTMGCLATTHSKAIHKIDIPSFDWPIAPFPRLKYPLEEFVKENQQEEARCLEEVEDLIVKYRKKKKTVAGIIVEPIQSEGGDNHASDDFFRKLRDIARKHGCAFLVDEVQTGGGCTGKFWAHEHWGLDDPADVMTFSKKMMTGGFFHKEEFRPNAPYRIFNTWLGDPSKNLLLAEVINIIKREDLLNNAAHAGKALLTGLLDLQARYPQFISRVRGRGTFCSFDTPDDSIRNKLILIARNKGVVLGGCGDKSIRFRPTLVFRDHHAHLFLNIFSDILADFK

## N[C@H]1C[C@@H](C(=O)O)CC1=C(Cl)Cl
[1]
  Activity: 58%
[2]
  Activity: inactive
